Experimental data from ChEMBL document CHEMBL3046680, “Evidence of stereoselective and segmental-dependant transport of chiral antidiabetic drug nateglinide along the rat small intestine: possible role of efflux transporters” (Med Chem Res, 2013).

Tests used:
[1] = (§1) Apparent permeability across apical to basal side of Sprague-Dawley Rattus norvegicus (rat) normal ileum sac at 1 mg/ml by HPLC method; format: ADME, tissue-based; details: Sprague-Dawley
[2] = (§2) Apparent permeability across apical to basal side of Sprague-Dawley Rattus norvegicus (rat) normal duodenum sac at 1 mg/ml by HPLC method; format: ADME; details: Sprague-Dawley
[3] = (§3) Efflux Rattus norvegicus (rat)io of apparent permeability from basal to apical side over apical to basal side of Sprague-Dawley Rattus norvegicus (rat) duodenum sac at 1 mg/ml by HPLC method; format: ADME; details: Sprague-Dawley
[4] = (§4) Apparent permeability across basal to apical side of Sprague-Dawley Rattus norvegicus (rat) everted ileum sac at 1 mg/ml by HPLC method; format: ADME, tissue-based; details: Sprague-Dawley
[5] = (§5) Efflux Rattus norvegicus (rat)io of apparent permeability from basal to apical side over apical to basal side of Sprague-Dawley Rattus norvegicus (rat) jejunum sac at 1 mg/ml by HPLC method; format: ADME, tissue-based; details: Sprague-Dawley
[6] = (§6) Apparent permeability across basal to apical side of Sprague-Dawley Rattus norvegicus (rat) everted jejunum sac at 1 mg/ml by HPLC method; format: ADME, tissue-based; details: Sprague-Dawley
[7] = (§7) Apparent permeability across basal to apical side of Sprague-Dawley Rattus norvegicus (rat) everted duodenum sac at 1 mg/ml by HPLC method; format: ADME; details: Sprague-Dawley
[8] = (§8) Apparent permeability across apical to basal side of Sprague-Dawley Rattus norvegicus (rat) normal jejunum sac at 1 mg/ml by HPLC method; format: ADME, tissue-based; details: Sprague-Dawley
[9] = (§9) Efflux Rattus norvegicus (rat)io of apparent permeability from basal to apical side over apical to basal side of Sprague-Dawley Rattus norvegicus (rat) ileum sac at 1 mg/ml by HPLC method; format: ADME, tissue-based; details: Sprague-Dawley
[10] = Apparent permeability across apical to basal side of Sprague-Dawley Rattus norvegicus (rat) normal jejunum sac at 500 ug/ml by HPLC method; format: ADME, tissue-based
[11] = Elimination half life in Homo sapiens (human); format: ADME, organism-based; details: in vivo, read-out: beta t1/2 (converted)
[12] = Apparent permeability across apical to basal side of Sprague-Dawley Rattus norvegicus (rat) normal ileum sac at 500 ug/ml by HPLC method; format: ADME, tissue-based
[13] = Tmax in Homo sapiens (human); format: ADME, organism-based; details: in vivo
[14] = Efflux Rattus norvegicus (rat)io of apparent permeability from basal to apical side over apical to basal side of Sprague-Dawley Rattus norvegicus (rat) jejunum sac at 500 ug/ml by HPLC method; format: ADME, tissue-based
[15] = Oral bioavailability in Homo sapiens (human); format: ADME, organism-based; details: in vivo
[16] = Apparent permeability across basal to apical side of Sprague-Dawley Rattus norvegicus (rat) everted duodenum sac at 500 ug/ml by HPLC method; format: ADME
[17] = Apparent permeability across basal to apical side of Sprague-Dawley Rattus norvegicus (rat) everted ileum sac at 500 ug/ml by HPLC method; format: ADME, tissue-based
[18] = Efflux Rattus norvegicus (rat)io of apparent permeability from basal to apical side over apical to basal side of Sprague-Dawley Rattus norvegicus (rat) duodenum sac at 500 ug/ml by HPLC method; format: ADME
[19] = Apparent permeability across basal to apical side of Sprague-Dawley Rattus norvegicus (rat) everted jejunum sac at 500 ug/ml by HPLC method; format: ADME, tissue-based
[20] = Apparent permeability across apical to basal side of Sprague-Dawley Rattus norvegicus (rat) normal duodenum sac at 500 ug/ml by HPLC method; format: ADME
[21] = Dissociation constant, pKa of the compound; format: physicochemical
[22] = Efflux Rattus norvegicus (rat)io of apparent permeability from basal to apical side over apical to basal side of Sprague-Dawley Rattus norvegicus (rat) […] sac at 500 ug/ml by HPLC method; format: ADME, tissue-based, Ileum
Ileum [23] = experiment: as §1; format: ADME, tissue-based
Duodenum [24] = experiment: as §2; format: ADME
Duodenum [25] = experiment: as §3; format: ADME
Ileum [26] = experiment: as §4; format: ADME, tissue-based
Jejunum [27] = experiment: as §5; format: ADME, tissue-based
Jejunum [28] = experiment: as §6; format: ADME, tissue-based
Duodenum [29] = experiment: as §7; format: ADME
Jejunum [30] = experiment: as §8; format: ADME, tissue-based
Ileum [31] = experiment: as §9; format: ADME, tissue-based

Work on `CC(C)[C@H]1CC[C@H](C(=O)N[C@H](Cc2ccccc2)C(=O)O)CC1` (racemic; form 1) [NATEGLINIDE] yielded a Papp A→B at 1 mg/ml [1] of 190 ×10⁻⁶ cm/s, a Papp A→B at 1 mg/ml [2] of 260 ×10⁻⁶ cm/s and an efflux ratio at 1 mg/ml [3] of 1.3. It also gave a Papp B→A at 1 mg/ml [4] of 590 ×10⁻⁶ cm/s, an efflux ratio at 1 mg/ml [5] of 1.4 and a Papp B→A at 1 mg/ml [6] of 340 ×10⁻⁶ cm/s. For the same molecule, the Papp B→A at 1 mg/ml [7] was 350 ×10⁻⁶ cm/s, the Papp A→B at 1 mg/ml [8] was 230 ×10⁻⁶ cm/s and the efflux ratio at 1 mg/ml [9] was 3.1.
In the case of `CC(C)[C@H]1CC[C@H](C(=O)N[C@H](Cc2ccccc2)C(=O)O)CC1` [NATEGLINIDE], the Papp A→B at 500 ug/ml [10] is reported as 120 ×10⁻⁶ cm/s, the half-life [11] is reported as 84 min and the Papp A→B at 500 ug/ml [12] is reported as 90 ×10⁻⁶ cm/s. For the same molecule, the Tmax [13] was 30 min, the efflux ratio at 500 ug/ml [14] was 2 and the bioavailability [15] was 70%. The Papp B→A at 500 ug/ml [16] was 250 ×10⁻⁶ cm/s, the Papp B→A at 500 ug/ml [17] was 440 ×10⁻⁶ cm/s and the efflux ratio at 500 ug/ml [18] was 1.6. For the same molecule, the Papp B→A at 500 ug/ml [19] was 240 ×10⁻⁶ cm/s, the Papp A→B at 500 ug/ml [20] was 150 ×10⁻⁶ cm/s and the pKa [21] was 3.1. It also gave an efflux ratio at 500 ug/ml [22] of 4.8.
`CC(C)[C@H]1CC[C@H](C(=O)N[C@H](Cc2ccccc2)C(=O)O)CC1` (racemic; form 2) [NATEGLINIDE] gave a Papp (Ileum [23]) of 1.3 ×10⁻⁴ cm/s, a Papp (Duodenum [24]) of 2.4 ×10⁻⁴ cm/s and a Ratio (Duodenum [25]) of 1.4. For the same molecule, the Papp (Ileum [26]) was 3.6 ×10⁻⁴ cm/s, the Ratio (Jejunum [27]) was 1.5 and the Papp (Jejunum [28]) was 3.6 ×10⁻⁴ cm/s. It also gave a Papp (Duodenum [29]) of 3.4 ×10⁻⁴ cm/s, a Papp (Jejunum [30]) of 2.2 ×10⁻⁴ cm/s and a Ratio (Ileum [31]) of 3.5.
`CC(C)[C@H]1CC[C@H](C(=O)N[C@@H](Cc2ccccc2)C(=O)O)CC1` [(S)-NATEGLINIDE] gave a Papp A→B at 500 ug/ml [10] of 130 ×10⁻⁶ cm/s, a Papp A→B at 500 ug/ml [12] of 100 ×10⁻⁶ cm/s and an efflux ratio at 500 ug/ml [14] of 1.7. It also gave a Papp B→A at 500 ug/ml [16] of 210 ×10⁻⁶ cm/s, a Papp B→A at 500 ug/ml [17] of 380 ×10⁻⁶ cm/s and an efflux ratio at 500 ug/ml [18] of 1.4. The Papp B→A at 500 ug/ml [19] was 220 ×10⁻⁶ cm/s, the Papp A→B at 500 ug/ml [20] was 140 ×10⁻⁶ cm/s and the efflux ratio at 500 ug/ml [22] was 3.8.
